Results from patent publication US11578369B2, “Method for the in vitro prognosis of individuals having multiple myeloma and method for the treatment thereof” (CENTRE NATIONAL DE LA RECHERCHE SCIENTIFIQUE, priority 2016, dated 2023).
Where “and” joins values, the source holds several entries; their conditions need not be identical. Identical values can stand only once.

Key:
Assay type in all cases: cell-based, human
HMCLs [1] = assay: Sublethal dose (IC10) of Decitabine on HMCLs
Experimental: To assess the potential synergistic effect of the inhibition of these two repressive mechanisms, we tested the combination of a sublethal dose of Decitabine (100 nM, IC10) with EPZ-6438 (1 μM) on two EPZ-6438-resistant HMCLs. […] Therefore, DNA hypomethylation can collaborate with EZH2 inhibition to block MM cell growth.

[2] = test system: LP1 and XG19 lenalidomide sensitive cell lines; assay: Lenalidomide sensitivity of HMCLs after EPZ-6438 pretreatment, cell growth assay; details: 4 days 1 uM EPZ-6438 prior to lenalidomide, P<0.05
Experimental: HMCLs were cultured for 15 days in RPMI 1640 medium, 10% FCS, and 2 ng/ml IL-6 (control medium) in the presence of EPZ-6438 ([…] ®). Cell concentration and viability were assessed using trypan blue dye exclusion test. The number of metabolic-active was also determined using intracellular ATP quantitation.

primary MMCs = assay: Sensitivity of patients' primary MMCs to EPZ-6438, 8-day culture, viable MMC count by CD138 flow cytometry; details: primary MMCs of 14 MM patients, one table row per patient; 1 μM EPZ-6438, 8 days, IL-6; in % (unit assumed)
Experimental: FIG. 3B: EZ score predicts for sensitivity of HMCLs and primary MMCs to EZH2 inhibitor. EZ score predicts for EPZ-6438 sensitivity of primary myeloma cells of patients. Mononuclear cells from tumor samples of 14 patients with MM were cultured for 8 days in the presence of IL-6 (2 ng/ml) with or without 1 μM EPZ-6438. At day 8 of culture, the count of viable MMCs was determined using CD138 staining by flow cytometry.
Bone marrow samples were collected after patients' written informed consent in accordance with the Declaration of Helsinki and institutional research board approval from Heidelberg and Montpellier University hospital. […] The structural chromosomal aberrations including t(4; 14)(p16.3; q32.3) and t(11; 14)(q13; q32.3), as well as numerical aberrations including 17p13 and 1q21 gain, were assayed by fluorescence in situ hybridization (iFISH). […] As iFISH data are not available for UAMS-TT2 patients, t(4; 14) translocation was evaluated using MMSET spike expression and del17p13 surrogated by TP53 probe set signal. […]
The inventors have determined that a set of 5 genes that are differentially expressed in a cohort of 14 MM individuals is associated with a prognostic value of their responsiveness to the EZH2 inhibitor EPZ-6438, as shown in Table 2 below. […]

IRF4 = IRF4 protein level in HMCLs by flow cytometry; details: 1 μM EPZ-6438 4 days, then 2 days with or without 2 μM lenalidomide
Experimental: (§1) The expression of IKZF1, c-Myc and IRF4 in HMCLs was evaluated by flow cytometry using PE-conjugated anti-IKZFL anti-MYC and anti-IRF4 mAb and isotype matched PE-conjugated mAb. Data are mean values±standard deviation (SD) of three experiments.
(§2) The expression of IKZF1, c-Myc and IRF4 in HMCLs was evaluated by flow cytometry using PE-conjugated anti-IKZF1, anti-MYC and anti-IRF4 mAb and isotype matched PE-conjugated mAb. IKZF1 expression was assessed by immunofluorescence using an anti-IKZF1 primary antibody and an AF555-conjugated secondary antibody and further plotted onto a graph.
(§3) Cells were fixed for 10 min with Cytofix/Cytoperm (BD BIOSCIENCES®) at 4° C.
(§4) IMiDs promote Ikaros and Aiolos transcription factors binding to the E3 ubiquitin ligase cereblon (CRBN) leading to Ikaros and Aiolos ubiquitination and proteasomal degradation. Ikaros and Aiolos degradation are associated with a downregulation of Interferon regulatory factor 4 (IRF4) and MYC playing an essential role in MMC survival.

IKZF1 = IKZF1 protein level in HMCLs by flow cytometry; details: 1 μM EPZ-6438 4 days, then 2 days with or without 2 μM lenalidomide
Experimental: as §1, §2, §3, §4

HMCLs [3] = assay: Sensitivity of HMCLs with high or low EZ score to EPZ-6438, cell growth assay; details: 1 μM EPZ-6438, 8 days; P=0.04
Experimental: FIG. 3A: EZ score predicts for sensitivity of HMCLs and primary MMCs to EZH2 inhibitor. […] Human myeloma cell lines were cultured for 8 days in 96-well flat-bottom microtiter plates in RPMI 1640 medium, 10% fetal calf serum, 2 ng/ml IL-6 culture medium (control) and 1 μM EPZ-6438. Data are mean values±standard deviation (s.d.) of five experiments determined.
HMCLs were cultured for 15 days in RPMI 1640 medium, 10% FCS, and 2 ng/ml IL-6 (control medium) in the presence of EPZ-6438 ([…]®). Cell concentration and viability were assessed using trypan blue dye exclusion test. The number of metabolic-active was also determined using intracellular ATP quantitation. […] Cell growth was evaluated by quantifying intracellular ATP amount with a Cell Titer Glo Luminescent Assay (PROMEGA®, Madison, Wis.) using a Centro LB 960 luminometer (BERTHOLD TECHNOLOGIES®, Bad Wildbad, Germany).
It was then sought to validate whether the EZ-score could predict for the sensitivity of 10 HMCLs to EPZ-6438. Starting from the large cohort of 40 HMCLs, the response of 5 HMCLs with a high EZ score and 5 HMCLs with a low EZ score to EPZ-6438 EZH2 inhibitor was analyzed.

MYC = MYC protein level in HMCLs by flow cytometry; details: 1 μM EPZ-6438 4 days, then 2 days with or without 2 μM lenalidomide
Experimental: as §1, §2, §3, §4

SMILES	IC10 (HMCLs [1])	sensitization of myeloma cell lines to lenalidomide treatment [2]	Response (primary MMCs)	IRF4 protein level inhibition (IRF4)	IKZF1 protein level inhibition (IKZF1)	median higher EPZ-6438 sensitivity, 5 HMCLs with highest EZ score compared to 5 HMCLs with low EZ-score (HMCLs [3])	MYC protein level inhibition (MYC)
Nc1ncn([C@H]2C[C@H](O)[C@@H](CO)O2)c(=O)n1 [Decitabine]	100 nM						
CCN(c1cc(-c2ccc(CN3CCOCC3)cc2)cc(C(=O)NCc2c(C)cc(C)[nH]c2=O)c1C)C1CCOCC1 [EPZ-6438, EPZ-6438 (Tazemetostat)]		significantly sensitize	64.15 and 46.39 and 53.41 and 61.33 and 72.61 and 112.5 and 84.96 and 118 and 79.27 and 77.76 and 101.43 and 73.09 and 66.53 and 72.01	38.7%	45.2%	20 fold	6.2%
Nc1cccc2c1CN(C1CCC(=O)NC1=O)C2=O (stereo not drawn) [lenalidomide]				43%			2.2%
